Test system: LG0703-F948-PDC complex spheroid viability
Test: Anticancer human tumor LG0703-F948-PDC patient-derived lung adenocarcinoma cell line growth inhibition [RAS]
Details: for IC50: curve of first compound; for viability, T/C: stronger effect = lower value
Outline: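 Agents were tested in combination matrices in half-log decrements from a top concentration at or near clinical Cmax (10 microM if undetermined). Targets were multi-cell spheroids of tumour lines plus HUVEC and MSC stromal cells.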

[1] = second compound 0.000949 µM, first compound 0.00316 µM
[2] = second compound 0.000949 µM, first compound 0.01 µM
[3] = second compound 0.000949 µM, first compound 0.0316 µM
[4] = second compound 0.000949 µM, first compound 0.1 µM
[5] = second compound 0.000949 µM, first compound 0.316 µM
[6] = second compound 0.000949 µM, first compound 1 µM
[7] = second compound 0.003 µM, first compound 0.00316 µM
[8] = second compound 0.003 µM, first compound 0.01 µM
[9] = second compound 0.003 µM, first compound 0.0316 µM
[10] = second compound 0.003 µM, first compound 0.1 µM
[11] = second compound 0.003 µM, first compound 0.316 µM
[12] = second compound 0.003 µM, first compound 1 µM
[13] = second compound 0.00949 µM, first compound 0.00316 µM
[14] = second compound 0.00949 µM, first compound 0.01 µM
[15] = second compound 0.00949 µM, first compound 0.0316 µM
[16] = second compound 0.00949 µM, first compound 0.1 µM
[17] = second compound 0.00949 µM, first compound 0.316 µM
[18] = second compound 0.00949 µM, first compound 1 µM
[19] = second compound 0.03 µM, first compound 0.00316 µM
[20] = second compound 0.03 µM, first compound 0.01 µM
[21] = second compound 0.03 µM, first compound 0.0316 µM
[22] = second compound 0.03 µM, first compound 0.1 µM
[23] = second compound 0.03 µM, first compound 0.316 µM
[24] = second compound 0.03 µM, first compound 1 µM
[25] = second compound 0.0949 µM, first compound 0.00316 µM
[26] = second compound 0.0949 µM, first compound 0.01 µM
[27] = second compound 0.0949 µM, first compound 0.0316 µM
[28] = second compound 0.0949 µM, first compound 0.1 µM
[29] = second compound 0.0949 µM, first compound 0.316 µM
[30] = second compound 0.0949 µM, first compound 1 µM
[31] = second compound 0.3 µM, first compound 0.00316 µM
[32] = second compound 0.3 µM, first compound 0.01 µM
[33] = second compound 0.3 µM, first compound 0.0316 µM
[34] = second compound 0.3 µM, first compound 0.1 µM
[35] = second compound 0.3 µM, first compound 0.316 µM
[36] = second compound 0.3 µM, first compound 1 µM
[37] = second compound 0.000949 µM, first compound 3.16 µM
[38] = second compound 0.000949 µM, first compound 10 µM
[39] = second compound 0.003 µM, first compound 3.16 µM
[40] = second compound 0.003 µM, first compound 10 µM
[41] = second compound 0.00949 µM, first compound 3.16 µM
[42] = second compound 0.00949 µM, first compound 10 µM
[43] = second compound 0.03 µM, first compound 3.16 µM
[44] = second compound 0.03 µM, first compound 10 µM
[45] = second compound 0.0949 µM, first compound 3.16 µM
[46] = second compound 0.0949 µM, first compound 10 µM
[47] = second compound 0.3 µM, first compound 3.16 µM
[48] = second compound 0.3 µM, first compound 10 µM
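Note: spheroids exposed to agents for 7 days.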
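Throughout, for viability, T/C: 100% = DMSO vehicle wells.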

With `C=CC(=O)Nc1cc(Nc2nccc(-c3cn(C)c4ccccc34)n2)c(OC)cc1N(C)CCN(C)C` + CCn1c(-c2cc(N3CCN(C)CC3)cnc2C(C)OC)c2c3cc(ccc31)-c1csc(n1)CC(NC(=O)C1CC1C)C(=O)N1CCCC(N1)C(=O)OCC(C)(C)C2 the IC50 (second compound 0.000949 µM) was 5.17 nM, the IC50 (second compound 0.003 µM) was < 3.16 nM and the IC50 (second compound 0.00949 µM) was < 3.16 nM. For the same compound, the IC50 (second compound 0.03 µM) was < 3.16 nM, the IC50 (second compound 0.0949 µM) was < 3.16 nM and the IC50 (second compound 0.3 µM) was < 3.16 nM. It also gave a viability, T/C [1] of 62.6%, a viability, T/C [2] of 33% and a viability, T/C [3] of 17.7%. The viability, T/C [4] was 12.9%, the viability, T/C [5] was 11.6% and the viability, T/C [6] was 9.33%. It also gave a viability, T/C [7] of 30.5%, a viability, T/C [8] of 18.5% and a viability, T/C [9] of 12.6%. The viability, T/C [10] was 10.9%, the viability, T/C [11] was 12.3% and the viability, T/C [12] was 8.1%. For the same compound, the viability, T/C [13] was 24%, the viability, T/C [14] was 14.2% and the viability, T/C [15] was 12.6%. It also gave a viability, T/C [16] of 9.67%, a viability, T/C [17] of 8.83% and a viability, T/C [18] of 9.91%. For the same compound, the viability, T/C [19] was 14.1%, the viability, T/C [20] was 13.1% and the viability, T/C [21] was 8.75%. It also gave a viability, T/C [22] of 7.03%, a viability, T/C [23] of 6.1% and a viability, T/C [24] of 4.67%. For the same compound, the viability, T/C [25] was 9.07%, the viability, T/C [26] was 7.77% and the viability, T/C [27] was 5.22%. It also gave a viability, T/C [28] of 5.15%, a viability, T/C [29] of 5.21% and a viability, T/C [30] of 3.75%. It also gave a viability, T/C [31] of 7.47%, a viability, T/C [32] of 9.59% and a viability, T/C [33] of 5.92%. For the same compound, the viability, T/C [34] was 5.32%, the viability, T/C [35] was 4.11% and the viability, T/C [36] was 2.62%.
For `CC(C)NCC(C(=O)N1CCN(c2ncnc3c2C(C)CC3O)CC1)c1ccc(Cl)cc1` (stereo not drawn) + CCn1c(-c2cc(N3CCN(C)CC3)cnc2C(C)OC)c2c3cc(ccc31)-c1csc(n1)CC(NC(=O)C1CC1C)C(=O)N1CCCC(N1)C(=O)OCC(C)(C)C2, the IC50 (second compound 0.000949 µM) was 127 nM, the IC50 (second compound 0.003 µM) was 34.1 nM and the IC50 (second compound 0.00949 µM) was < 31.6 nM. The IC50 (second compound 0.03 µM) was < 31.6 nM, the IC50 (second compound 0.0949 µM) was < 31.6 nM and the IC50 (second compound 0.3 µM) was < 31.6 nM. It also gave a viability, T/C [3] of 64.1%, a viability, T/C [4] of 54% and a viability, T/C [5] of 37.1%. For the same compound, the viability, T/C [6] was 30%, the viability, T/C [37] was 17.6% and the viability, T/C [38] was 14.5%. The viability, T/C [9] was 51%, the viability, T/C [10] was 35% and the viability, T/C [11] was 18%. For the same compound, the viability, T/C [12] was 13.1%, the viability, T/C [39] was 12.7% and the viability, T/C [40] was 8.04%. The viability, T/C [15] was 23.2%, the viability, T/C [16] was 16.7% and the viability, T/C [17] was 10.3%. For the same compound, the viability, T/C [18] was 7.8%, the viability, T/C [41] was 6.46% and the viability, T/C [42] was 3.27%. For the same compound, the viability, T/C [21] was 11.7%, the viability, T/C [22] was 13.7% and the viability, T/C [23] was 7.73%. It also gave a viability, T/C [24] of 3.93%, a viability, T/C [43] of 3.49% and a viability, T/C [44] of 1%. For the same compound, the viability, T/C [27] was 10%, the viability, T/C [28] was 6.85% and the viability, T/C [29] was 4.55%. It also gave a viability, T/C [30] of 3.71%, a viability, T/C [45] of 1.27% and a viability, T/C [46] of 0.64%. For the same compound, the viability, T/C [33] was 9.37%, the viability, T/C [34] was 5.76% and the viability, T/C [35] was 5.01%. The viability, T/C [36] was 3.25%, the viability, T/C [47] was 1.87% and the viability, T/C [48] was 0.61%.
`CC(Nc1ccc2c(c1)OCCn1cc(N3C(=O)OCC3C(F)F)nc1-2)C(N)=O` (stereo not drawn) + CCn1c(-c2cc(N3CCN(C)CC3)cnc2C(C)OC)c2c3cc(ccc31)-c1csc(n1)CC(NC(=O)C1CC1C)C(=O)N1CCCC(N1)C(=O)OCC(C)(C)C2 was tested, and the IC50 (second compound 0.000949 µM) was 136 nM, the IC50 (second compound 0.003 µM) was < 31.6 nM and the IC50 (second compound 0.00949 µM) was < 31.6 nM. For the same compound, the IC50 (second compound 0.03 µM) was < 31.6 nM, the IC50 (second compound 0.0949 µM) was < 31.6 nM and the IC50 (second compound 0.3 µM) was < 31.6 nM. For the same compound, the viability, T/C [3] was 66.8%, the viability, T/C [4] was 55% and the viability, T/C [5] was 37.9%. For the same compound, the viability, T/C [6] was 22.5%, the viability, T/C [37] was 16.8% and the viability, T/C [38] was 8.97%. For the same compound, the viability, T/C [9] was 38.7%, the viability, T/C [10] was 31.1% and the viability, T/C [11] was 20.2%. The viability, T/C [12] was 12.6%, the viability, T/C [39] was 8.64% and the viability, T/C [40] was 3.86%. It also gave a viability, T/C [15] of 20.7%, a viability, T/C [16] of 16.5% and a viability, T/C [17] of 7.46%. For the same compound, the viability, T/C [18] was 5.56%, the viability, T/C [41] was 4.28% and the viability, T/C [42] was 1.67%. The viability, T/C [21] was 10.8%, the viability, T/C [22] was 8.93% and the viability, T/C [23] was 4%. The viability, T/C [24] was 3.07%, the viability, T/C [43] was 1.45% and the viability, T/C [44] was 1.14%. For the same compound, the viability, T/C [27] was 8.21%, the viability, T/C [28] was 5.47% and the viability, T/C [29] was 3.07%. The viability, T/C [30] was 2.1%, the viability, T/C [45] was 1.39% and the viability, T/C [46] was 0.7%. For the same compound, the viability, T/C [33] was 6.47%, the viability, T/C [34] was 4.12% and the viability, T/C [35] was 2.78%. The viability, T/C [36] was 2.27%, the viability, T/C [47] was 1.25% and the viability, T/C [48] was 0.71%.
`O=C(c1ccc(F)c(F)c1Nc1ccc(I)cc1F)N1CC(O)([C@@H]2CCCCN2)C1` + CCn1c(-c2cc(N3CCN(C)CC3)cnc2C(C)OC)c2c3cc(ccc31)-c1csc(n1)CC(NC(=O)C1CC1C)C(=O)N1CCCC(N1)C(=O)OCC(C)(C)C2 was tested, and the IC50 (second compound 0.000949 µM) was 5.33 nM, the IC50 (second compound 0.003 µM) was < 3.16 nM and the IC50 (second compound 0.00949 µM) was < 3.16 nM. For the same compound, the IC50 (second compound 0.03 µM) was < 3.16 nM, the IC50 (second compound 0.0949 µM) was < 3.16 nM and the IC50 (second compound 0.3 µM) was < 3.16 nM. For the same compound, the viability, T/C [1] was 59.2%, the viability, T/C [2] was 38.7% and the viability, T/C [3] was 28%. The viability, T/C [4] was 19.2%, the viability, T/C [5] was 18.5% and the viability, T/C [6] was 14.4%. It also gave a viability, T/C [7] of 37.1%, a viability, T/C [8] of 22.3% and a viability, T/C [9] of 19.1%. The viability, T/C [10] was 10.5%, the viability, T/C [11] was 11.4% and the viability, T/C [12] was 8.17%. It also gave a viability, T/C [13] of 17.4%, a viability, T/C [14] of 15.4% and a viability, T/C [15] of 8.52%. It also gave a viability, T/C [16] of 6.3%, a viability, T/C [17] of 8.85% and a viability, T/C [18] of 8.14%. The viability, T/C [19] was 10.5%, the viability, T/C [20] was 8.04% and the viability, T/C [21] was 4.84%. It also gave a viability, T/C [22] of 3%, a viability, T/C [23] of 5.82% and a viability, T/C [24] of 4.58%. For the same compound, the viability, T/C [25] was 7.33%, the viability, T/C [26] was 6.13% and the viability, T/C [27] was 3.55%. The viability, T/C [28] was 3.1%, the viability, T/C [29] was 3.05% and the viability, T/C [30] was 3.07%. For the same compound, the viability, T/C [31] was 5.13%, the viability, T/C [32] was 3.55% and the viability, T/C [33] was 2.8%. For the same compound, the viability, T/C [34] was 2.47%, the viability, T/C [35] was 2.61% and the viability, T/C [36] was 2.35%.
